≈ marks a conversion by molar mass, not a printed value.
Tests used:
Experiment in all cases: in vitro antibacterial evaluation, MIC by broth dilution
Format in all cases: cell-based
Enterococcus sp. = details: broth dilution, 18 hours at 35° C.
How it was run: (§1)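 Inoculum 5×10^5 CFU/mL; concentrations 64 to 0.06 μg/mL; MIC defined as lowest inhibitory level. Conducted by broth dilution under NCCLS guidelines.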

Streptococcus sp. = details: broth dilution, 18 hours at 35° C.
How it was run: as §1

Staphylococcus sp. = details: broth dilution, 18 hours at 35° C.
How it was run: as §1

Escherichia coli = details: 18 hours at 35° C.

CC(c1ccccc1)C1NC(=O)CNC(=O)C(CO)NC(=O)C(C(O)C2CNC(=N)N2C2OC(CO)C(O)C(O)C2O)NC(=O)C(C(O)C2CNC(=N)N2)NC(=O)C(Cc2ccc(OC3OC(CO)C(OC4OC(COCC=Cc5ccc(N(C)C)cc5)C(O)C(O)C4O)C(O)C3O)cc2)NC1=O (stereo not shown) [Example 243]
MIC Enterococcus avium (GC 4558) (Enterococcus sp.): 32 µg/mL (≈ 22 µM) | MIC Enterococcus faecalis (ATCC 29212) (Enterococcus sp.): >64 µg/mL | MIC Enterococcus faecalis (GC 2242) (Enterococcus sp.): 64 µg/mL (≈ 44 µM) | MIC Enterococcus faecalis (GC 2691) (Enterococcus sp.): >64 µg/mL | MIC Enterococcus faecalis (GC 3059) (Enterococcus sp.): >64 µg/mL | MIC Enterococcus faecalis (GC 4552) (Enterococcus sp.): >64 µg/mL | MIC Enterococcus faecalis (GC 4553) (Enterococcus sp.): 64 µg/mL (≈ 44 µM) | MIC Enterococcus faecalis (GC 4554) (Enterococcus sp.): >64 µg/mL | MIC Enterococcus faecalis (GC 6189) (Enterococcus sp.): 64 µg/mL (≈ 44 µM) | MIC Enterococcus faecium (GC 2243) (Enterococcus sp.): 64 µg/mL (≈ 44 µM) | MIC Enterococcus faecium (GC 4556) (Enterococcus sp.): >64 µg/mL | MIC Enterococcus faecium (GC 4557) (Enterococcus sp.): 32 µg/mL (≈ 22 µM) | MIC Enterococcus faecalis (ATCC 29212) (Enterococcus sp.; strain ATCC 29212): >64 µg/mL | MIC Enterococcus faecium (GC 2243) (Enterococcus sp.; strain GC 2243): 64 µg/mL (≈ 44 µM) | MIC Enterococcus faecalis (GC 4552) (Enterococcus sp.; strain GC 4552): >64 µg/mL | MIC Enterococcus faecalis (GC 4553) (Enterococcus sp.; strain GC 4553): 64 µg/mL (≈ 44 µM) | MIC Enterococcus faecalis (GC 4554) (Enterococcus sp.; strain GC 4554): >64 µg/mL | MIC Enterococcus faecium (GC 4556) (Enterococcus sp.; strain GC 4556): >64 µg/mL | MIC Enterococcus faecium (GC 4557) (Enterococcus sp.; strain GC 4557): 32 µg/mL (≈ 22 µM) | MIC Enterococcus avium (GC 4558) (Enterococcus sp.; strain GC 4558): 32 µg/mL (≈ 22 µM) | MIC Enterococcus faecalis (GC 6189) (Enterococcus sp.; strain GC 6189): 64 µg/mL (≈ 44 µM) | MIC Enterococcus faecalis (GC 2242) (Enterococcus sp.; inoculum 5×10^5 CFU/mL, strain GC 2242): 64 µg/mL (≈ 44 µM) | MIC Enterococcus faecalis (GC 2691) (Enterococcus sp.; inoculum 5×10^5 CFU/mL, strain GC 2691): >64 µg/mL | MIC Enterococcus faecalis (GC 3059) (Enterococcus sp.; inoculum 5×10^5 CFU/mL, strain GC 3059): >64 µg/mL | MIC Streptococcus agalactiae (GC 4564) (Streptococcus sp.): 32 µg/mL (≈ 22 µM) | MIC Streptococcus pneumoniae (ATCC 6301) (Streptococcus sp.): 32 µg/mL (≈ 22 µM) | MIC Streptococcus pneumoniae (GC 1894) (Streptococcus sp.): 8 µg/mL (≈ 5.5 µM) | MIC Streptococcus pneumoniae (GC 4565) (Streptococcus sp.): 16 µg/mL (≈ 11 µM) | MIC Streptococcus pyogenes (GC 4563) (Streptococcus sp.): 32 µg/mL (≈ 22 µM) | MIC Streptococcus pneumoniae (ATCC 6301) (Streptococcus sp.; inoculum 5×10^5 CFU/mL, strain ATCC 6301): 32 µg/mL (≈ 22 µM) | MIC Streptococcus pneumoniae (GC 1894) (Streptococcus sp.; inoculum 5×10^5 CFU/mL, strain GC 1894): 8 µg/mL (≈ 5.5 µM) | MIC Streptococcus pyogenes (GC 4563) (Streptococcus sp.; inoculum 5×10^5 CFU/mL, strain GC 4563): 32 µg/mL (≈ 22 µM) | MIC Streptococcus agalactiae (GC 4564) (Streptococcus sp.; inoculum 5×10^5 CFU/mL, strain GC 4564): 32 µg/mL (≈ 22 µM) | MIC Streptococcus pneumoniae (GC 4565) (Streptococcus sp.; inoculum 5×10^5 CFU/mL, strain GC 4565): 16 µg/mL (≈ 11 µM) | MIC Coagulase Negative Staphylococcus (GC 4547) (Staphylococcus sp.): 64 µg/mL (≈ 44 µM) | MIC Coagulase Negative Staphylococcus (GC 4548) (Staphylococcus sp.): 32 µg/mL (≈ 22 µM) | MIC Coagulase Negative Staphylococcus (GC 4549) (Staphylococcus sp.): 32 µg/mL (≈ 22 µM) | MIC Coagulase Negative Staphylococcus (GC 4551) (Staphylococcus sp.): 64 µg/mL (≈ 44 µM) | MIC Coagulase Negative Staphylococcus (GC 6257) (Staphylococcus sp.): 32 µg/mL (≈ 22 µM) | MIC Staphylococcus aureus (ATCC 29213) (Staphylococcus sp.): 64 µg/mL (≈ 44 µM) | MIC Staphylococcus aureus (GC 1131) (Staphylococcus sp.): 64 µg/mL (≈ 44 µM) | MIC Staphylococcus aureus (GC 3051) (Staphylococcus sp.): 64 µg/mL (≈ 44 µM) | MIC Staphylococcus aureus (GC 3053) (Staphylococcus sp.): 64 µg/mL (≈ 44 µM) | MIC Staphylococcus aureus (GC 4541) (Staphylococcus sp.): 64 µg/mL (≈ 44 µM) | MIC Staphylococcus aureus (GC 4542) (Staphylococcus sp.): 64 µg/mL (≈ 44 µM) | MIC Staphylococcus aureus (GC 4544) (Staphylococcus sp.): 64 µg/mL (≈ 44 µM) | MIC Staphylococcus aureus (GC 4545) (Staphylococcus sp.): 64 µg/mL (≈ 44 µM) | MIC Staphylococcus aureus-SMITH (GC 4543) (Staphylococcus sp.): 64 µg/mL (≈ 44 µM) | MIC Staphylococcus haemolyticus (GC 4546) (Staphylococcus sp.): 64 µg/mL (≈ 44 µM) | MIC Staphylococcus aureus (ATCC 29213) (Staphylococcus sp.; strain ATCC 29213): 64 µg/mL (≈ 44 µM) | MIC Staphylococcus aureus (GC 1131) (Staphylococcus sp.; strain GC 1131): 64 µg/mL (≈ 44 µM) | MIC Staphylococcus aureus (GC 3051) (Staphylococcus sp.; strain GC 3051): 64 µg/mL (≈ 44 µM) | MIC Staphylococcus aureus (GC 3053) (Staphylococcus sp.; strain GC 3053): 64 µg/mL (≈ 44 µM) | MIC Staphylococcus aureus (GC 4541) (Staphylococcus sp.; strain GC 4541): 64 µg/mL (≈ 44 µM) | MIC Staphylococcus aureus (GC 4542) (Staphylococcus sp.; strain GC 4542): 64 µg/mL (≈ 44 µM) | MIC Staphylococcus aureus-SMITH (GC 4543) (Staphylococcus sp.; strain GC 4543): 64 µg/mL (≈ 44 µM) | MIC Staphylococcus aureus (GC 4544) (Staphylococcus sp.; strain GC 4544): 64 µg/mL (≈ 44 µM) | MIC Staphylococcus aureus (GC 4545) (Staphylococcus sp.; strain GC 4545): 64 µg/mL (≈ 44 µM) | MIC Staphylococcus haemolyticus (GC 4546) (Staphylococcus sp.; strain GC 4546): 64 µg/mL (≈ 44 µM) | MIC Coagulase Negative Staphylococcus (GC 4547) (Staphylococcus sp.; strain GC 4547): 64 µg/mL (≈ 44 µM) | MIC Coagulase Negative Staphylococcus (GC 4548) (Staphylococcus sp.; strain GC 4548): 32 µg/mL (≈ 22 µM) | MIC Coagulase Negative Staphylococcus (GC 4549) (Staphylococcus sp.; strain GC 4549): 32 µg/mL (≈ 22 µM) | MIC Coagulase Negative Staphylococcus (GC 4551) (Staphylococcus sp.; strain GC 4551): 64 µg/mL (≈ 44 µM) | MIC Coagulase Negative Staphylococcus (GC 6257) (Staphylococcus sp.; strain GC 6257): 32 µg/mL (≈ 22 µM) | MIC Escherichia coli (ATCC 25922) (Escherichia coli): >64 µg/mL | MIC Escherichia coli (GC 4559) (Escherichia coli): >64 µg/mL | MIC Escherichia coli (GC 4560) (Escherichia coli): 64 µg/mL (≈ 44 µM)

Reference: patent publication US6914045B2, “Glycopeptide antibiotics” (Wyeth Holdings Corporation, priority 2001, dated 2005)
